Patent US20090202540A1, “SUBSTITUTED OXAZAPHOSPHORINES” (Auspex Pharmaceuticals, Inc., priority 2008, published 2009)
Where two headings read alike, the source gives them in different places.

Details: 1 mg per mL liver microsome protein, 1 μM compound, 37° C., compared to the non-isotopically enriched drug
Experimental: Liver microsomal stability assays were conducted at 1 mg per mL liver microsome protein with an NADPH-generating system in 2% NaHCO3 (2.2 mM NADPH, 25.6 mM glucose 6-phosphate, 6 units per mL glucose 6-phosphate dehydrogenase and 3.3 mM MgCl2). Test compounds were prepared as solutions in 20% acetonitrile-water and added to the assay mixture (final assay concentration 1 μM) and incubated at 37° C. Final concentration of acetonitrile in the assay should be <1%. Aliquots (50 μL) were taken out at times 0, 15, 30, 45, and 60 min, and diluted with ice cold acetonitrile (200 μL) to stop the reactions. Samples were centrifuged at 12,000 RPM for 10 min to precipitate proteins. Supernatants were transferred to micro centrifuge tubes and stored for LC/MS/MS analysis of the degradation half-life of the test compounds.

Row | Structure (SMILES) | % increase of HLM degradation half-life (50%-150%) | further results
1 | [2H]C([2H])(Cl)C([2H])([2H])N(C([2H])([2H])C([2H])([2H])Cl)P1(=O)NCCCO1 (stereo not shown) [Example 1, d8-Bis-(2-chloro-ethyl)-(2-oxo-2λ^5-[1,3,2]oxazaphosphinan-2yl)-amine] | – | % increase of HLM degradation half-life (column −25%-0%): + (−25%-0%)
2 | [2H]C1([2H])CCNP(=O)(N(CCCl)CCCl)O1 (stereo not shown) [Example 2, Bis-(2-chloro-ethyl)-(d2-2-oxo-2λ^5-[1,3,2]oxazaphosphinan-2yl)-amine] | + (50%-150%) | –
3 | [2H]C1([2H])CCNP(=O)(N(C([2H])([2H])C([2H])([2H])Cl)C([2H])([2H])C([2H])([2H])Cl)O1 (stereo not shown) [Example 3, d8-Bis-(2-chloro-ethyl)-(d2-2-oxo-2λ^5-[1,3,2]oxazaphosphinan-2yl)amine] | + (50%-150%) | –
4 | [2H]C1([2H])CCOP(=O)(N(C([2H])([2H])C([2H])([2H])Cl)C([2H])([2H])C([2H])([2H])Cl)N1 (stereo not shown) [Example 5, d8-Bis-(2-chloro-ethyl)-(2-oxo-2λ^5-[1,3,2]oxazaphosphinan-2yl)-d2-amine] | – | % increase of HLM degradation half-life (0%-50%): + (0%-50%)
